Where a name gives a salt, the structure may show the parent alone.
Target: T1, human vasopressin V1a receptor subtype (Homo sapiens, UniProt P37288)
T1 construct: host or cells: CHO cells, stably transfected (pZeoSV vector for the Thibonnier line)
Experiment: Vasopressin binding in CHO cell membranes expressing human vasopressin V1a subtype receptors ([3H]Manning ligand radioligand binding)
Details: for IC50: value in parentheses
From the text: Chinese hamster ovary cells (CHO cells) stably transfected with the human vasopressin V1a subtype receptors were either obtained from Biosignal Inc., 1744 rue Williams, Montreal, Quebec, Canada or obtained from M. Thibonnier, Case Western Reserve University School of Medicine, Cleveland, Ohio.
CHO cells transfected with the human vasopressin V1a subtype receptors obtained from M. Thibonnier (pZeoSV vector) are allowed to grow to confluency (approx. >90%) in T-150 flasks under sterile conditions, in a cell culture medium consisting of F-12 Nutrient Mixture (HAM) with L-glutamine (Gibco Cat. #11765-054) containing 15 mM HEPES (Gibco Cat. #15630-080), 1% antibiotic/antimycotic (add 5 mL 100×, Gibco Cat. #15240-062 per 500 mL F-12), 250 μg/mL Zeocin (add 1.25 mL of 100 mg/mL Invitrogen R-250-01 per 500 mL F-12) and 10% Fetal Bovine Serum (Qualified, heat inactivated, Gibco Cat. #16140-063). The medium is removed by aspiration and the cells are washed with 10 mL of Hank's Balanced Salt solution (Gibco Cat. #14175-095). The salt solution is removed by aspiration and the cells are trypsinized with 5 mL of trypsin-EDTA (0.05% trypsin, 0.53 mM EDTA-4Na, Gibco Cat. #25300-070) for 1 min. The trypsin is removed by aspiration and the cells dislodged by tapping. Cell Culture medium (eg, 30 mL for 1:30 split) is immediately added and mixed well to inactivate trypsin. 1 mL of detached cells is added to new culture flasks containing fresh cell culture medium (eg, into 25 mL per T-150 flask), and mixed gently. The cells are incubated at 37° C. in 5% CO2. The medium is changed at 3 to 4 days interval (or as appropriate). The cells grow to confluency (approx. >75%-95%) within 7-8 days. All steps are done under sterile conditions.
The cells are washed twice gently with Hank's Balanced Salt solution (e.g,. use 10 mL per T-150 flask). The excess is removed and the cells are bathed for 15-30 min. in an enzyme-free Cell Dissociation Buffer (e.g. use 8 mL Hank's Based, Gibco Cat. #13150-016 per T-150 flask) until the cells are loosened. The contents are transferred to centrifuge tubes (50 mL) kept in an ice bath. All subsequent steps are done at 4° C. The tubes are centrifuged at 300×g for 15 min (1380 rpm on SORVAL, Model RT6000D, using the rotor for 50 mL tubes). The supernatant is discarded and the cells suspended in homogeneizing buffer (10 mM Tris-HCl containing 0.25 M sucrose and 1 mM EDTA, pH 7.4) ensuring that the volume of the buffer is about ten times the volume of the cell pellet. The cells are pooled into a centrifuge tube (50 mL) and homogenized with Polytron at setting 6 for 10 sec. The homogenate is transferred into a Potter-Elvjehm homogenizer and homogenized with 3 strokes. The homogenate is centrifuged at 1500×g for 10 min at 4° C. (3100 rpm using SORVAL, model RT6000D, using the rotor for 50 mL tubes). The pellet is discarded. The supernatant is centrifuged at 100,000×g for 60 min. at 4° C. (Beckman L8-80M ultracentrifuge; spin at 37,500 rpm with rotor type 70 Ti for 50 mL tubes; 38,000 rpm with type 80Ti for 15 mL tubes; or 35,800 rpm with rotor type 45Ti). The supernantant is discarded and the pellet suspended in 3 to 4 mL of Tris buffer (50 mM TRIS-HCl, pH 7.4). The protein content is estimated by the Bradford or Lowry method. The volume of the membrane suspension is adjusted with the membrane buffer (50 mM Tris-HCl containing 0.1% BSA and 0.1 mM PMSF) to give 3.0 mg/mL (or as appropriate) of protein. The membranes are aliquoted and stored at −70° C.
In wells of a 96-well format microtiter plate, is added 90, 110 or 130 μL (to make up a final volume of 200 μL) of assay buffer containing 50 mM of Tris-HCl (pH 7.4), BSA (heat inactivated, protease-free), […], 1 mg % aprotinin, 1 mg % leupeptin, 2 mg % 1,10-phenanthroline, 10 mg % trypsin inhibitor, and 0.1 mM PMSF. The inhibitors are added on the day of the experiment. […]

T1 sequence (P37288 whole entry): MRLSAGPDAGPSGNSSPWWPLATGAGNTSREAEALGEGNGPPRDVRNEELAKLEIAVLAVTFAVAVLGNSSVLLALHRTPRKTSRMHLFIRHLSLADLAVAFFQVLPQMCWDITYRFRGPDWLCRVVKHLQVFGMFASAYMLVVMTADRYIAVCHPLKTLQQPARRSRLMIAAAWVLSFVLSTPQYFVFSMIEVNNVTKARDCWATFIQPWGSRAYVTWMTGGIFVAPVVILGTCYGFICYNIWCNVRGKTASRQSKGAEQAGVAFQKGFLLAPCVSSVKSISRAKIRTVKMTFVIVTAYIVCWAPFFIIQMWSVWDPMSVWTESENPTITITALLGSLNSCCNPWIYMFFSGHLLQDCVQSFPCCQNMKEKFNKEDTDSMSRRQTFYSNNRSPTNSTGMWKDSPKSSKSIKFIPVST

Structure (SMILES)	inhibition at 0.1 µM (100 nM) [%]	also measured
COc1cc(C2=CCCCC2)c(Cl)cc1C(=O)N1Cc2ccc(C(=O)N3CCC[C@H]3CN3CCCC3)n2Cc2ccccc21 [Example 1, 4-Chloro-5-cyclohex-1-en-1-yl-2-[(3-{[(2S)-2-(pyrrolidin-1-ylmethyl)pyrrolidin-1-yl]carbonyl}-5H-pyrrolo [2,1-c][1,4]benzodiazepin-10(11H)-yl)carbonyl]phenyl methyl ether]	–	IC50: 1280 nM
COc1cc(C2=CCCCC2)c(Cl)cc1C(=O)N1Cc2ccc(C(=O)N(C)CCCN(C)C)n2Cc2ccccc21 [Example 2, 10-(5-Chloro-4-cyclohex-1-en-1-yl-2-methoxybenzoyl)-N-[3-(dimethylamino)propyl]-N-methyl-10,11-dihydro-5H-pyrrolo[2,1-c][1,4]benzodiazepine-3-carboxamide]	19	–
COc1cc(C2=CCCCC2)c(Cl)cc1C(=O)N1Cc2ccc(C(=O)N(C)CCCN(C)C)n2Cc2ccccc21 [Example 3, 10-(5-Chloro-4-cyclohex-1-en-1-yl-2-methoxybenzoyl)-N-[3-(dimethylamino)propyl]-N-methyl-10,11-dihydro-5H-pyrrolo[2,1-c][1,4]benzodiazepine-3-carboxamide citric acid salt]	–	IC50: 977 nM
Cc1cc(C(=O)N2Cc3ccc(C(=O)N4CCN(C)CC4)n3Cc3ccccc32)ccc1C1=CCCCC1 [Example 4, [10-(4-Cyclohex-1-en-1-yl-3-methyl-benzoyl)-10,11-dihydro-5H-pyrrolo[2,1-c][1,4]benzodiazepin-3-yl]-(4-methyl-piperazin-1-yl)-methanone]	26	–
Cc1cc(C(=O)N2Cc3ccc(C(=O)N4CCN(CCCN(C)C)CC4)n3Cc3ccccc32)ccc1C1=CCCCC1 [Example 5, [10-(4-Cyclohex-1-en-1-yl-3-methyl-benzoyl)-10,11-dihydro-5H-pyrrolo[2,1-c][1,4]benzodiazepin-3-yl]-[4-(3-dimethylamino-propyl)-piperazin-1-yl]-methanone]	56	–
Cc1cc(C(=O)N2Cc3ccc(C(=O)N4CCN(C)CC4)n3Cc3ccccc32)ccc1C1=CCCc2ccccc21 [Example 6, {10-[4-(3,4-Dihydro-naphthalen-1-yl)-3-methyl-benzoyl]-10,11-dihydro-5H-benzo[e]pyrrolo[1,2-a][1,4]diazepin-3-yl}-(4-methyl-piperazin-1-yl)-methanone]	4	–
Cc1cc(C(=O)N2Cc3ccc(C(=O)N4CCN(CCCN(C)C)CC4)n3Cc3ccccc32)ccc1C1=CCCc2ccccc21 [Example 7, {10-[4-(3,4-Dihydro-naphthalen-1-yl)-3-methyl-benzoyl]-10,11-dihydro-5H-pyrrolo[2,1-c][1,4]benzodiazepin-3-yl}-[4-(3-dimethylamino-propyl)-piperazin-1-yl]-methanone]	7	–
CC1=C(c2ccc(C(=O)N3Cc4ccc(C(=O)N5CCN(C)CC5)n4Cc4ccccc43)cc2C)CCCC1O (stereo not shown) [Example 10, [4-(3-Hydroxy-2-methyl-cyclohex-1-en-1-yl)-3-methyl-phenyl]-[3-(4-methyl-piperazine-1carbonyl)-10,11-dihydro-5H-pyrrolo[2,1-c][1,4]benzodiazepin-10-yl]-methanone]	52	–
CC1=C(c2ccc(C(=O)N3Cc4ccc(C(=O)N5CCN(C)CC5)n4Cc4ccccc43)cc2C)CCC[C@H]1O [Example 11, [4-((3R)-3-Hydroxy-2-methyl-cyclohex-1-en-1-yl)-3-methyl-phenyl]-[3-(4-methyl-piperazine-1-carbonyl)-10,11-dihydro-5H-pyrrolo [2,1-c][1,4]benzodiazepin-10-yl]-methanone]	26	–
Cc1cc(C(=O)N2Cc3ccc(C(=O)N4CCCN(C)CC4)n3Cc3ccccc32)ccc1C1=CCCCC1 [Example 13, {10-[4-(1-Cyclohex-1-en-1-yl)-3-methylbenzoyl]-10,11-dihydro-5H-pyrrolo[2,1-c][1,4]benzodiazepin-3-yl}(4-methyl-1,4-diazepan-1-yl)methanone]	–	V1a % inhibition @ 100 nM (100 nM): 34%

From US7326700B2, “Cyclohexenyl phenyl carboxamides tocolytic oxytocin receptor antagonists” (Wyeth, priority 2001, dated 2008)
